Measurements from patent US9597310B2, “Indanyloxydihydrobenzofuranylacetic acids” (Boehringer Ingelheim International GmbH, priority 2012, dated 2017).

Experiments:
[1] = Chemical stability (degradation kinetics) in acidic aqueous media, HPLC recovery rate; assay type: physicochemical; conditions: pH value of ca. 1.2, acetonitrile/0.1 M aqueous HCl (2:3), 37° C.
Protocol: Degradation kinetics is used to simulate chemical stability of compounds in the acidic part of the gastro intestinal tract.
The chemical stability of the compounds of the invention at pH value of ca. 1.2 is determined as follows:
Compound is dissolved in an HPLC vial either in a mixture of acetonitrile/0.1 M aqueous HCl (2:3; pH ca. 1.2) or in a mixture of acetonitrile/McIlvaine buffer pH 7.4 (2:3) to get a concentration of approximately 0.25 mg/ml. The vial was then transferred into an HPLC autosampler system and maintained at a temperature of 37° C. A first sample is taken and injected immediately into a standard HPLC system with a UV DAD detector. Further samples are injected after 2, 4, 6, 8 and 10 hours. Degradation of the compound is measured by determining the recovery rate of compound [%] for each injection using an HPLC standard gradient method. Therefore the peak area of the main peak for the first injection (AUt0) is determined and set as 100%. Peak area of the main peak is determined also for the further injections (AUtn, n=2, 4, 6, 8, 10) and expressed as fraction of […] [%].

human GPR40 receptor = human GPR40 receptor (Homo sapiens (Human), UniProt O14842); experiment: IP1 accumulation measurements using the IPOne assay system; assay type: cell-based; conditions: 1321N1 cells stably expressing human GPR40 receptor, 1 h stimulation
Sequence of human GPR40 receptor (O14842 whole entry): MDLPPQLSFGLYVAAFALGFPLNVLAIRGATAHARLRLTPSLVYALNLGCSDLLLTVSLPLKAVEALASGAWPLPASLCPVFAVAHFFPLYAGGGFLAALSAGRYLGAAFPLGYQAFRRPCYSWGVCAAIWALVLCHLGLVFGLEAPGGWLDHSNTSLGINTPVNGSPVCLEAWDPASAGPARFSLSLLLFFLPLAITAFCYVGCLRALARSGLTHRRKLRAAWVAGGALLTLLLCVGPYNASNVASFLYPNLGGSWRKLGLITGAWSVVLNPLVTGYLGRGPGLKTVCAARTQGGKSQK
Summary of the method: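 Cells were stimulated with compounds for 1 h at 37 °C in HEPES-buffered stimulation buffer containing 50 mM LiCl, pH 7.4. IP1 was then detected by HTRF (IP1-d2/anti-IP1 cryptate, 1 h at room temperature), and 665/615 ratios were converted using an IP1 reference curve, with pEC50 obtained by variable-slope sigmoidal fitting.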

Q: For CCNC(=O)c1ccc(Oc2ccc(F)c3c2CC[C@H]3Oc2ccc3c(c2)OC[C@H]3CC(=O)O)cc1 [Example 12, {(S)-6-[(R)-4-(4-Ethylcarbamoyl-phenoxy)-7-fluoro-indan-1-yloxy]-2,3-dihydro-benzofuran-3-yl}-acetic acid], which “Recovery rate after 2 h” value [1] is on record?
A: >99%

Q: And the EC50 (human GPR40 receptor)?
A: 0.018 µM
